# Conditions: buffer; pH 7.4; 6.0 h; 150.0 µM
row,SMILES,solubility kinetic [µg/mL]
1,COc1ccc(-n2nc(C3CCCN(C(=O)c4ccc(C)cc4)C3)[nH]c2=O)cc1 (configuration not stated),39.4
2,COc1cc(OC)cc(-c2csc(N3CCC(C(N)=O)CC3)n2)c1,> 51
3,CCn1c(-c2nonc2N)nc2cnc(Oc3cccc(NC(=O)c4ccc(OCCN5CCOCC5)cc4)c3)cc21,< 1
4,O=C(NCCc1nc2ccccc2n1CCO)C1CCCCC1,> 47
5,Cc1ccc(-n2c(C)cc(-c3nnc4n3CCCCC4)c2C)cc1,27.8
6,CCNC(=O)c1coc(COc2ccc3c(c2)C(c2ccc(F)cc2)N(C(=O)CC(C)C)CC3)n1 (configuration not stated),3.8
7,CCc1ccc(C2N=C(N)Nc3nc4ccccc4n32)cc1 (configuration not stated),6.87
8,FC1(F)CCN(c2nc(-c3ccncc3)nc3ccccc23)CC1,< 1
9,CCc1cc(Cl)c(OC)c(C(=O)NC[C@@H]2CCCN2CC)c1O.Cl,27.3
10,COc1cccc(CNc2ccc(S(=O)(=O)Nc3ccc(N4CCNCC4)nc3)cc2)c1O,55.9
11,CS(=O)(=O)c1ccc(-c2csc(N3CCC(C(N)=O)CC3)n2)cc1,7.22
12,Cc1cccc2nc(-c3ccccn3)c(Nc3ccc(F)cc3)n12,34.2
13,CC(=O)OCCN1C(=O)c2c(C)nc3ccc(S(=O)(=O)N4CCOCC4)cc3c2C1=O,< 1
14,Fc1ccc(Oc2nc(-c3ccncc3)nc3ccccc23)cc1F,6.95
15,COc1ccccc1-c1nc(NCc2ccc(-c3cccnc3)cc2)c2ccccc2n1,< 1
16,Cc1ccccc1C(=O)N1CCc2cc(N3CCC(NC(=O)Cc4ccccc4)C3)ccc21 (configuration not stated),5.59
17,CCOc1ccc(Nc2nc(C)c(NC(=O)c3ccc(C)cc3)c(Nc3ccc(OCC)cc3)n2)cc1,< 1
18,O=C(Nc1cccc(C(F)(F)F)c1)c1ccccc1NC(=O)C1CCCCC1,< 1
19,Cc1cc(-c2nnc3n2CCCCC3)c(C)n1-c1cccc(C(F)(F)F)c1,32.8
20,COc1cc(CNCCO)cc(Cl)c1OCc1ccc(Cl)cc1Cl.Cl,40
21,Cn1cc2c3c(cccc31)CN(C(=O)c1ccc(F)c(Cl)c1)CC2,< 1
22,CNc1oc(-c2ccccc2-c2ccccc2)nc1C#N,1.21
23,COc1ccc(-c2nc3ccc(C4=NNC(=O)CC4C)cc3[nH]2)cc1 (configuration not stated),< 1
24,O=C1CCCC2=C1C(c1[nH]ncc1Cl)N=C(Nc1nc3ccccc3o1)N2 (configuration not stated),< 1
25,Cc1sc2ncnc(Sc3nnnn3-c3ccccc3)c2c1-c1ccccc1,0.29

row,SMILES,solubility kinetic [µg/mL]
1,O=C(Nc1ccc2oc(-c3cccnc3)nc2c1)c1ccc(-c2ccccc2)o1,< 1
2,CCc1ccc(NC(=O)c2cc3ncccn3n2)cc1,6.75
3,C#C[C@]1(OC(C)=O)CC[C@H]2[C@@H]3CCC4=C/C(=N/O)CC[C@@H]4[C@H]3CC[C@@]21CC,< 1
4,O=S(=O)(Nc1ccc2ccccc2c1)c1ccc(NCc2cccc(Cl)c2O)cc1,< 1
5,Cc1ccc(S(=O)(=O)Nc2ccc(Br)cc2C(=O)Nc2nc(-c3ccccc3)cs2)cc1,< 1
6,Fc1ccc(Nc2cc(-c3ccccc3)nc(-c3ccncc3)n2)cc1F,< 1
7,Cc1ccc(-n2c(=O)c3oc4ccccc4c3n(CC(=O)Nc3ccc(F)c(Cl)c3)c2=O)cc1C,< 1
8,Clc1ccc(Nc2nc(-c3ccncc3)nc3ccccc23)cc1Cl,< 1
9,Cc1ccc(S(=O)(=O)Nc2cnccc2C(=O)Nc2nc(-c3ccncc3)cs2)cc1,> 67
10,O=S(=O)(Nc1cccc(C(F)(F)F)c1)c1ccc(NS(=O)(=O)c2ccc3c(c2)OCCO3)cc1,< 1
11,Cc1noc(C)c1-c1ccc2ncnc(N3CCC(C(=O)O)CC3)c2c1,> 52
12,CCOc1ccccc1N1CC(c2nc3ccccc3n2CCOc2ccc(C(C)(C)C)cc2)CC1=O (configuration not stated),< 1
13,CC(=O)c1ccc(N2CCN(C(=O)c3ccc4c(c3)CC(=O)N4)CC2)cc1,> 54
14,Cc1cc(Nc2ccc(Br)c(C)c2)n2nc(C)nc2n1,30.9
15,O=[S+]([O-])(Nc1ccccc1)c1ccc(NCc2ccc(Cl)cc2O)cc1,2.64
16,Cc1ccc(Nc2nc(-c3ccncc3)nc3ccccc23)cc1F,< 1
17,Cc1ccc(-c2cc(C(=O)Nc3cccc(S(=O)(=O)Nc4nccs4)c3)c3ccccc3n2)cc1C,< 1
18,COc1cncc(Nc2ncc(-c3cccc(N(C)C)c3)c3c2OCC3)c1,< 1
19,COC(=O)c1cc(Cl)ccc1NC(=O)CSc1ncc(S(=O)(=O)c2ccc(Br)cc2)c(=O)[nH]1,59.1
20,Cc1ccc(S(=O)(=O)Nc2cc(Cl)c(Cl)cc2C(=O)Nc2nc(-c3ccccc3)cs2)cc1,< 1
21,COc1ccccc1N1CCN(CCN(C(=O)c2ccc(F)cc2)c2ccccn2)CC1,> 64
22,COc1ccc(S(=O)(=O)N2CCCCCC2)cc1NC(=O)Cc1n[nH]c(=O)c2ccccc12,8.46
23,Cc1noc(-c2cn(C3CCN(C(=O)c4ccc(OC(F)(F)F)cc4)CC3)nn2)n1,37.9
24,COc1ccc(C2Nc3ccccc3C(=O)N2Cc2cccnc2)cc1COc1c(C)cc(NC(C)=O)cc1C (configuration not stated),1.69
25,O=C(c1ccc2c(c1)ncn2-c1ccc(Cl)cc1)N1CCCCC1,> 50

row,SMILES,solubility kinetic [µg/mL]
1,O=C(O)Cn1c(C(=O)Nc2nc(-c3ccccc3Cl)cs2)cc2ccccc21,> 61
2,COC(=O)c1ccc(NC(=O)c2nc3ccccc3n(C)c2=O)cc1,< 1
3,CCN(CCCOc1ccc2c(Nc3cc(CC(=O)Nc4cccc(F)c4)[nH]n3)ncnc2c1)CCOP(=O)(O)O,> 87
4,COc1ccc(S(=O)(=O)Nc2cnccc2C(=O)Nc2nc(-c3ccccc3)cs2)cc1,54.1
5,Oc1ccc(NCc2ccccc2OCc2ccccc2Cl)cc1,3.28
6,CC1=C(C(=O)Nc2nccs2)C(c2ccccc2Br)N=C(Nc2nc3ccccc3o2)N1 (configuration not stated),< 1
7,CN(C(=O)OC(C)(C)C)[C@@H](Cc1ccc(O[S+](=O)([O-])c2cccc3cnccc23)cc1)C(=O)N1CCN(C(=O)OCc2ccccc2)CC1,< 1
8,Cc1cc(NS(=O)(=O)c2ccc(N(C)C(=O)Cc3ccc(Cl)c(Cl)c3)cc2)no1,> 67
9,Cc1cn2c(N)c(Cl)cc(C(=O)NCC3CCN(CC(C)C)CC3)c2n1,39.2
10,COc1ccc(OC)c(N2C(=O)C(Cl)=C(N3CCCCC3)C2=O)c1,< 1
11,Cc1ccc(S(=O)(=O)Nc2cnccc2C(=O)Nc2nc(-c3ccc(Oc4ccccc4)cc3)cs2)cc1,0.918
12,Fc1cc(Nc2nc(-c3ccncc3)nc3ccccc23)ccc1-c1cccc(OC(F)F)c1,< 1
13,COc1ccc(C(=O)NC2CCN(c3cnn(CC4CC4)c(=O)c3)CC2)cc1,8.61
14,COc1ccc(-n2nc(C3CCCN(CC4CCCCC4)C3)[nH]c2=O)cc1 (configuration not stated),> 37
15,COC(=O)c1ccccc1C(=O)Nc1nc(-c2ccccc2)cs1,7.61
16,CN([C@@H](Cc1ccc(O[S+](=O)([O-])c2cccc3cnccc23)cc1)C(=O)N1CCN(C(=O)OCc2ccccc2)CC1)[S+](=O)([O-])c1cccc2cnccc12,1.26
17,Cc1ccc(S(=O)(=O)Nc2cnccc2C(=O)Nc2nc(C3CCC3)cs2)cc1,> 63
18,CCN(CC)CCCC(C)Nc1cc(/C=C/c2ccccc2Cl)nc2cc(Cl)ccc12 (configuration not stated),25.4
19,Cc1sc(NC(=O)Cc2ccc3c(c2)OCO3)nc1-c1ccc2c(c1)CCN2C(=O)c1ccccc1Cl,< 1
20,CCC(=O)NC(c1cccs1)c1cc([N+](=O)[O-])c2cccnc2c1O (configuration not stated),> 53
21,O=C(Cc1cccs1)NCc1nnc2ccc(-c3ccccc3)nn12,22
22,CNc1oc(-c2ccc(-c3ccccc3)cc2)nc1C#N,< 1
23,COc1ccc(C)cc1-n1nnnc1Sc1ncnc2scc(-c3ccc(Br)cc3)c12,2.38
24,COc1ccc(CN2C(=O)[C@@H]3C[C@@H](CN3Cc3cccs3)Oc3ccccc32)cc1,2.52
25,Cc1ccc(S(=O)(=O)Nc2cnccc2C(=O)Nc2nc3ccccc3s2)cc1,> 63

row,SMILES,solubility kinetic [µg/mL]
1,COc1ccccc1NC(=O)C1=C(C)Nc2c(C(=O)Nc3ccc(F)cc3)cnn2C1c1ccc(Cl)cc1 (configuration not stated),< 1
2,CCOC(=O)c1cc(-c2ccco2)nc2c1c(C)nn2CCC#N,9.9
3,Cc1nc2c(-c3ccccc3)cnn2c(N)c1-c1ccccc1,< 1
4,CCOc1ccc(CCNC(=O)c2cc3ccccc3n2Cc2cccc(C)c2)cc1OCC,< 1
5,CC(C)(C)CC(C)(C)c1ccc(O)cc1,2.09
6,O=C(C1CC(=O)N(c2n[nH]c3ccccc23)C1)N1CCC(c2noc3cc(F)ccc23)CC1 (configuration not stated),2.36
7,Cn1cc(C2=C(c3cn(CCCSC(=N)N)c4ccccc34)C(=O)NC2=O)c2ccccc21,19.2
8,Fc1ccc(-c2csc3ncnc(NCc4ccc5c(c4)OCO5)c23)cc1,0.226
9,Cc1cc(C)c(C(=O)Nc2cccc([S+](=O)([O-])N3CCCCCC3)c2)[nH]1,< 1
10,O=S(=O)(Nc1nccs1)c1ccc(NCc2cccc3cc[nH]c23)cc1,20.5
11,CCOc1ccc(CCN(C)C(=O)c2cc3sccc3n2Cc2ccccc2)cc1OCC,< 1
12,Cn1nnnc1Sc1ncnc2sc(-c3ccccc3)cc12,0.088
13,CC1CCC(n2c3cnccc3c3cnc(Nc4ccc5c(n4)CCN(C(=O)CO)C5)nc32)CC1 (configuration not stated),< 1
14,COC(=O)c1ccccc1NC(=O)c1ccccc1OC(F)F,< 1
15,CNCc1ccc(-c2cc(-c3nc(-c4ccc(S(=O)(=O)C(C)C)cc4)cnc3N)on2)cc1,27.3
16,O=C1Nc2ccc(C(=O)c3ccco3)cc2/C1=C/c1cc(Cl)c(O)c(Cl)c1,9.16
17,Cc1cc(C)c(CNC(=O)c2nc(-c3ccc(CN(C)C)cc3)cc3c2ccn3C(C)C)c(=O)[nH]1,40.3
18,CC(C)(C#N)c1ccc(N2C(=O)OCc3cnc4ccc(-c5cnc6ccccc6c5)cc4c32)cc1,< 1
19,Cc1ccc(S(=O)(=O)Nc2ccc(C(=O)Nc3nc(-c4ccccc4)cs3)c(Cl)c2)cc1,< 1
20,COc1cccc2nc(-c3cccs3)nc(NN3C(=O)C=C(C)C3=O)c12,> 54
21,Cc1ccnc(NC(=S)N2CC[C@@H](Nc3cccc(C(F)(F)F)c3)C2)c1,7.92
22,O=C(Nc1ccc(F)c(C(F)(F)F)c1)Nc1nnc(-c2ccncc2)s1,< 1

# Source: PubChem BioAssay AID1645848
